Assay results: US7943628B2, “Pyrimidine derivatives” (Pfizer Limited, priority 2005, dated 2011)
Like-named read-outs stand apart in the source and are kept apart here.

Target: T1, histamine H4 receptor (Homo sapiens, UniProt Q9H3N8)
T1 construct: expressed in transfected cells; host or cells: CHO cells
Test: H4 binding, method 2 ([3H]-histamine binding with Ysi WGA beads on CHO cell membranes)
Details: for Ki: H4 binding, method 2, Ki calculated from IC50 (Cheng-Prussoff)
Method: Cell pellets from CHO cells expressing the histamine H4 receptor were homogenised in ice-cold 50 mM Tris-HCl/0.5 mM CaCl2 buffer containing a protease inhibitor cocktail (Roche®, United Kingdom) using a ground glass homogeniser. Homogenates were centrifuged at 48000 g for 30 min at 4° C. The membrane pellet was resuspended in fresh buffer and the centrifugation step was repeated as described above. The membrane pellet was resuspended in 50 mM Tris-HCl in the same volume as the original cell pellet. Aliquots of membrane preparations were stored at −80° C. and were used for [^3H]-Histamine binding experiments.
Cell membranes (15 μg/well) were pre-incubated for 120 min shaking at 4° C. with Ysi WGA beads (250 μg/well) in 50 mM Tris-HCl (pH 7.4) followed by centrifugation at 1500 rpm for 5 minutes and resuspension in 50 mM Tris-HCl (pH 7.4). The membrane/bead mixture (15 μg membrane/250 μg beads well) was incubated for 90 minutes shaking at room temperature with 6.5 nM [2,5-^3H] Histamine dihydrochloride (30-60 Ci/mmol) in 50 mM Tris-HCl (pH 7.4), with or without competing H4 ligands. Non-specific binding was defined with 10 μM JNJ7777120. Bound radiolabel was determined using scintillation counting techniques after 90 minutes.

Ki (read-out: Method 2 (Ki (nM))) [nM] | Compound | further results
9.68 | CNC1CN(c2cc(NCc3ccccc3C)nc(N)n2)C1 [Example 82, 6-[3-(Methylamino)azetidin-1-yl]-N^4-(2-methylbenzyl)pyrimidine-2,4-diamine] | –
537 | C[C@@H]1CN(c2cc(NCCC(C)(C)C)nc(N)n2)CCN1C [Example 124, N^4-(3,3-Dimethylbutyl)-6-[(3R)-3,4-dimethylpiperazin-1-yl]pyrimidine-2,4-diamine] | –
12.1 | CNC1CN(c2cc(NCc3ccc(Cl)cc3)nc(N)n2)C1 [Example 81, N^4-(4-Chlorobenzyl)-6-[3-(methylamino)azetidin-1-yl]pyrimidine-2,4-diamine] | –
42.7 | CN[C@@H]1CCN(c2cc(NCCC(C)(C)C)ncn2)C1 [Example 109, N-(3,3-Dimethylbutyl)-6-[(3R)-3-(methylamino)pyrrolidin-1-yl]pyrimidin-4-amine] | –
376 | CC(C)(C)CNc1cc(N2CCC(N3CCCC3)C2)nc(N)n1 (stereo not drawn) [Example 327, 6-[(3-S)-1,3′-Bipyrrolidin-1′-yl]-N^4-(2,2-dimethylpropyl)pyrimidine-2,4-diamine] | –
49.7 | CCNc1cc(N2CC(NC)C2)ncn1 [Example 48, N-Ethyl-6-[3-(methylamino)azetidin-1-yl]pyrimidin-4-amine] | –
7930 | CC(C)(C)CCNc1cc(N[C@H]2CCN(Cc3ccccc3)C2)nc(N)n1 [Example 338, N^4-[(3S)-1-Benzylpyrrolidin-3-yl]-N6-(3,3-dimethylbutyl)pyrimidine-2,4,6-triamine] | –
1.93 | CNC1CN(c2cc(NCc3ccccc3Cl)nc(N)n2)C1 [Example 89, N^4-(2-Chlorobenzyl)-6-[3-(methylamino)azetidin-1-yl]pyrimidine-2,4-diamine] | –
414 | CNC1CN(c2cc(NCCOC)ncn2)C1 [Example 54, N-(2-Methoxyethyl)-6-[3-(methylamino)azetidin-1-yl]pyrimidin-4-amine] | –
20.5 | CNC1CN(c2cc(NCC3CC3)ncn2)C1 [Example 44, Cyclopropylmethyl-[6-(3-methylamino-azetidin-1-yl)-pyrimidin-4-yl]-amine] | –
635 | CN1CCN(c2cc(NC[C@@H]3CCCO3)ncn2)CC1 [Example 112, 6-(4-Methylpiperazin-1-yl)-N-[(2S)-tetrahydrofuran-2-ylmethyl]pyrimidin-4-amine] | –
1420 | CC(C)CCNc1cc(N[C@@H]2CCNC2)ncn1 [Example 329, N-(3-Methylbutyl)-N′-[(3R)-pyrrolidin-3-yl]pyrimidine-4,6-diamine] | –

More lines, now with the values behind:

Compound | Ki (read-out: Method 2 (Ki (nM))) [nM] | further results
CC(C)(C)CCNc1cc(N2CC[C@H](N3CCCC3)C2)ncn1 [Example 342, 6-[(3′S)-1,3′-Bipyrrolidin-1′-yl]-N-(3,3-dimethylbutyl)pyrimidin-4-amine] | – | Method 2, % at 40 μM: 13% at 40 μM
CC(C)CCNc1cc(N2C[C@H]3CN(C)C[C@H]3C2)nc(N)n1 [Example 41, N^4-(3-Methylbutyl)-6-[(3aR*,6aS*)-5-methylhexahydro-pyrrolo[3,4-c]pyrrol-2(1H)-yl]pyrimidine-2,4-diamine] | 202 | –
C[C@H]1CN(c2cc(NCC(C)(C)C)nc(N)n2)CCN1 [Example 96, N^4-(2,2-Dimethylpropyl)-6-[(3S)-3-methylpiperazin-1-yl]pyrimidine-2,4-diamine] | 3.77 | –
CN1C[C@@H]2CN(c3cc(NC4CC4)nc(N)n3)C[C@@H]2C1 [Example 42, N^4-Cyclopropyl-6-[(3aR*,6aS*)-5-methylhexahydro-pyrrolo[3,4-c]pyrrol-2(1H)-yl]pyrimidine-2,4-diamine] | 433 | –
CNC1CN(c2cc(NCc3ccc(C)cc3)nc(N)n2)C1 [Example 88, 6-[3-(Methylamino)azetidin-1-yl]-N^4-(4-methylbenzyl)pyrimidine-2,4-diamine] | 35.8 | –
CN1CCN(c2cc(N3CCCC3)ncn2)CC1 [Example 114, 4-(4-Methylpiperazin-1-yl)-6-pyrrolidin-1-ylpyrimidine] | 1030 | –
c1nc(NC[C@@H]2CCCO2)cc(N[C@@H]2CCNC2)n1 [Example 341, N-[(3R)-Pyrrolidin-3-yl]-N′-[(2S)-tetrahydrofuran-2-ylmethyl]pyrimidine-4,6-diamine] | 16300 | –
CN1CCN(c2cc(N(C)CC3CC3)ncn2)CC1 [Example 334, N-(Cyclopropylmethyl)-N-methyl-6-(4-methylpiperazin-1-yl)pyrimidin-4-amine] | 5070 | –
CC(C)CNc1cc(N2C[C@H]3CCCN[C@H]3C2)nc(N)n1 (racemic) [Example 27, N^4-Isobutyl-6-[(4aR*,7aR*)-octahydro-6H-pyrrolo[3,4-b]pyridin-6-yl]pyrimidine-2,4-diamine] | – | Ki (Method 2 (Ki (nM))): 22.4 nM
CN(C)[C@@H]1CCN(c2cc(NCC3CC3)ncn2)C1 [Example 19, N-(Cyclopropylmethyl)-6-[(3R)-3-(dimethylamino)pyrrolidin-1-yl]pyrimidin-4-amine] | 132 | –
N-Methyl-6-[3-(methylamino)azetidin-1- yl]pyrimidin-4-amine [Example 58] | 301 | –
Nc1nc(NC2CCC2)cc(N2C[C@H]3CCCN[C@H]3C2)n1 (racemic) [Example 32, N^4-Cyclobutyl-6-[(4aR*,7aR*)-octahydro-6H-pyrrolo[3,4-b]pyridin-6-yl] pyrimidine-2,4-diamine] | – | Ki (Method 2 (Ki (nM))): 20.9 nM
c1nc(NC[C@H]2CCCO2)cc(N[C@@H]2CCNC2)n1 [Example 345, N-[(3R)-Pyrrolidin-3-yl]-N′-[(2R)-tetrahydrofuran-2-ylmethyl]pyrimidine-4,6-diamine] | – | Method 2, % at 40 μM: 49% at 40 μM
Nc1nc(NCC2CCCC2)cc(N2C[C@H]3CCCN[C@H]3C2)n1 (racemic) [Example 33, N^4-(Cyclopentylmethyl)-6-[(4aR*,7aR*)-octahydro-6H-pyrrolo[3,4-b]pyridin-6-yl] pyrimidine-2,4-diamine] | – | Ki (Method 2 (Ki (nM))): 84.1 nM
c1ccc(CCNc2cc(N[C@@H]3CCNC3)ncn2)cc1 [Example 346, N-(2-Phenylethyl)-N′-[(3R)-pyrrolidin-3-yl]pyrimidine4,6-diamine] | 38400 | –
Cc1c(NC(C)C)ncnc1N1CCN(C)CC1 [Example 331, N-isoPropyl-5-methyl-6-(4-methylpiperazin-1-yl)pyrimidin-4-amine] | 2670 | –
CC(C)CCNc1cc(N2C[C@H]3CCCN[C@H]3C2)nc(N)n1 (racemic) [Example 29, N^4-(3-Methylbutyl)-6-[(4aR*, 7aR*)-octahydro-6H-pyrrolo [3,4-b]pyridin-6-yl] pyrimidine-2,4-diamine] | – | Ki (Method 2 (Ki (nM))): 82.9 nM
COCCNc1cc(N[C@@H]2CCNC2)ncn1 [Example 335, N-(2-Methoxyethyl)-N′-[(3R)-pyrrolidin-3-yl]pyrimidine-4,6-diamine] | 5350 | –
CNC1CN(c2cc(NCc3ccccc3OC)nc(N)n2)C1 [Example 87, N^4-(2-Methoxybenzyl)-6-[3-(methylamino)azetidin-1-yl]pyrimidine-2,4-diamine] | 17.4 | –
CNC1CN(c2cc(NCCC(C)C)ncn2)C1 [Example 55, 6-[3-(Methylamino)azetidin-1-yl]-N-(3-methylbutyl)pyrimidin-4-amine] | 28.9 | –
CNC1CN(c2cc(NCc3cccc(OC)c3)nc(N)n2)C1 [Example 66, N^4-(3-Methoxy-benzyl)-6-(3-methylamino-azetidin-1-yl)-pyrimidine-2,4-diamine] | 61.1 | –
CCNc1cc(N2CC[C@H](NC)C2)ncn1 [Example 16, N-Ethyl-6-[(3S)-3-(methyl-amino)pyrrolidin-1-yl] pyrimidin-4-amine] | 1740 | –
CN(C)[C@@H]1CCN(c2cc(NCCC(C)(C)C)ncn2)C1 [Example 18, 6-[(3R)-3-(Dimethylamino)pyrrolidin-1-yl]-N-(3,3-dimethylbutyl)pyrimidin-4-amine] | 387 | –
CNC1CN(c2cc(NC(C)C)ncn2)C1 [Example 46, N-Isopropyl-6-[3-(methylamino)azetidin-1-yl]pyrimidin-4-amine] | 40.1 | –
C[C@H]1CN(c2cc(NCCC(C)(C)C)nc(N)n2)CCN1 [Example 94, N^4-(3,3-Dimethylbutyl)-6-[(3S)-3-methylpiperazin-1-yl]pyrimidine-2,4-diamine] | 61.1 | –
CC(C)(C)CCNc1cc(N2C[C@H]3CCCN[C@H]3C2)ncn1 (racemic) [Example 328, N-(3,3-Dimethylbutyl)-6-[(4aR*,7aR*)-octahydro-6H-pyrrolo[3,4-b]pyridin-6-yl]pyrimidin-4-amine] | 554 | –
Nc1nc(NCC2CC2)cc(N2C[C@H]3CCCN[C@H]3C2)n1 (racemic) [Example 28, N^4-(Cyclopropylmethyl)-6-[(4aR*,7aR*)-octahydro-6H-pyrrolo[3,4-b]pyridin-6-yl] pyrimidine-2,4-diamine] | – | Ki (Method 2 (Ki (nM))): 21.3 nM
CN[C@@H]1CCN(c2cc(NCC3CC3)ncn2)C1 [Example 15, N-(Cyclopropylmethyl)-6-[(3R)-3-(methylamino)pyrrolidin-1-yl] pyrimidin-4-amine] | 19.2 | –
CCNc1cc(N2CC[C@@H](N(C)C)C2)ncn1 [Example 21, 6-[(3R)-3-(Dimethylamino)pyrrolidin-1-yl]-N-ethyl-pyrimidin-4-amine] | 722 | –
CN1CCN(c2cc(NCCC(F)(F)F)ncn2)CC1 [Example 115, 6-(4-Methylpiperazin-1-yl)-N-(3,3,3-trifluoropropyl)pyrimidin-4-amine] | 494 | –
